logP data for 26 compounds are collected here from the SangsterLogP compilation.

Molecules are shown by their SMILES.

One series can be described thus: method code SF-AQ, from DOI: 10.1016/0003-9861(68)90547-x, PMID: 5677592.
`OC[C@H]1O[C@@H](Oc2ccc(Cl)cc2)[C@H](O)[C@@H](O)[C@@H]1O`: the log partition coefficient (logP) (as a rule, a log measure of how a compound divides between an organic and an aqueous phase) amounted to 0.26.

The nature of the next series: method code SF-CR, from DOI: 10.1016/0003-9861(68)90547-x, PMID: 5677592.
In turn, `CC(C)(C)c1cc(OC2OC(CO)C(O)C(O)C2O)cc(C(C)(C)C)c1` (stereo unspecified) registered a logP of 2.73.

The next series in a line: method code SF-CR+AS, from DOI: 10.1016/0003-9861(68)90547-x, PMID: 5677592.
Turning to `CCc1cccc(O[C@@H]2O[C@H](CO)[C@@H](O)[C@H](O)[C@H]2O)c1`, the logP stood at 0.31.
As to `OC[C@H]1O[C@@H](OC2CCCCC2)[C@H](O)[C@@H](O)[C@@H]1O`, the lipophilicity (logP) is -0.63.
Same read-out and setting: as for `CC(C)c1cccc(O[C@@H]2O[C@H](CO)[C@H](O)[C@H](O)[C@H]2O)c1`, the figure is 0.65; as for `COc1ccc(O[C@@H]2O[C@H](CO)[C@@H](O)[C@H](O)[C@H]2O)cc1`, -0.73; as for `Cc1cccc(O[C@@H]2O[C@H](CO)[C@@H](O)[C@H](O)[C@H]2O)c1`, -0.2.
Consider `Cc1ccccc1O[C@@H]1O[C@H](CO)C(O)[C@H](O)[C@H]1O` (stereo in doubt), for which the logP is -0.16.
Regarding `OC[C@H]1O[C@@H](Oc2ccc3ccccc3c2)[C@H](O)[C@@H](O)[C@@H]1O`, the log partition coefficient (logP) stood at 0.76.
Compound `OC[C@H]1OC(OCc2ccccc2)[C@H](O)[C@@H](O)[C@@H]1O` (stereo partly specified) yielded a logP of -0.7.
`O=[N+]([O-])c1ccccc1O[C@@H]1O[C@H](CO)[C@@H](O)[C@H](O)[C@H]1O` returned a logP of -0.78.
The compound `OC[C@H]1O[C@@H](Oc2ccccc2)[C@H](O)[C@@H](O)[C@@H]1O` had a lipophilicity (logP) of -0.71.
As for `OC[C@H]1O[C@@H](Oc2ccc(I)cc2)[C@H](O)[C@@H](O)[C@@H]1O`, the logP was 0.75.
The same measure, in the same setting: the same measure for `COc1cccc(O[C@@H]2O[C@H](CO)[C@@H](O)[C@H](O)[C@H]2O)c1`: -0.52; for `Nc1ccccc1O[C@@H]1O[C@H](CO)[C@@H](O)[C@H](O)[C@H]1O`: -1.23.
The same measure, in the same setting: the same measure for `COc1ccccc1O[C@@H]1O[C@H](CO)[C@@H](O)[C@H](O)[C@H]1O`: -1.04.
`OC[C@H]1O[C@@H](Oc2ccccc2I)[C@H](O)[C@@H](O)[C@@H]1O` returned a logP of 0.27.
Still for that read-out and setting: as for `CC(C)(C)c1cccc(O[C@@H]2O[C@H](CO)[C@@H](O)[C@H](O)[C@H]2O)c1`, the figure is 1.01; as for `Cc1cc(C)cc(O[C@@H]2O[C@H](CO)[C@@H](O)[C@H](O)[C@H]2O)c1`, 0.26; as for `OC[C@H]1O[C@@H](Oc2cccc(C(F)(F)F)c2)[C@H](O)[C@@H](O)[C@@H]1O`, 0.49.
Consider `Cc1ccc(O[C@@H]2O[C@H](CO)[C@@H](O)[C@H](O)[C@H]2O)cc1`, for which the logP was -0.16.
With `CC(C)(C)c1ccc(O[C@@H]2O[C@H](CO)[C@@H](O)[C@H](O)[C@H]2O)cc1`, the logP is 1.18.
`OCc1ccccc1O[C@@H]1O[C@H](CO)[C@@H](O)[C@H](O)[C@H]1O` yielded a logP of -1.22.
`OC[C@H]1O[C@@H](Oc2ccc(O)cc2)[C@H](O)[C@@H](O)[C@@H]1O` came in with a logP of -1.35.
The compound `Nc1ccc(O[C@@H]2O[C@H](CO)[C@@H](O)[C@H](O)[C@H]2O)cc1` came in with a logP of -2.67.
Take `Cc1ccc(C(C)C)c(O[C@@H]2O[C@H](CO)[C@@H](O)[C@H](O)[C@H]2O)c1`: the logP is 1.07.
